The target of data set [1] is T1, Relaxin receptor 1 (Homo sapiens, UniProt Q9HBX9).
T1 sequence (Q9HBX9 whole entry): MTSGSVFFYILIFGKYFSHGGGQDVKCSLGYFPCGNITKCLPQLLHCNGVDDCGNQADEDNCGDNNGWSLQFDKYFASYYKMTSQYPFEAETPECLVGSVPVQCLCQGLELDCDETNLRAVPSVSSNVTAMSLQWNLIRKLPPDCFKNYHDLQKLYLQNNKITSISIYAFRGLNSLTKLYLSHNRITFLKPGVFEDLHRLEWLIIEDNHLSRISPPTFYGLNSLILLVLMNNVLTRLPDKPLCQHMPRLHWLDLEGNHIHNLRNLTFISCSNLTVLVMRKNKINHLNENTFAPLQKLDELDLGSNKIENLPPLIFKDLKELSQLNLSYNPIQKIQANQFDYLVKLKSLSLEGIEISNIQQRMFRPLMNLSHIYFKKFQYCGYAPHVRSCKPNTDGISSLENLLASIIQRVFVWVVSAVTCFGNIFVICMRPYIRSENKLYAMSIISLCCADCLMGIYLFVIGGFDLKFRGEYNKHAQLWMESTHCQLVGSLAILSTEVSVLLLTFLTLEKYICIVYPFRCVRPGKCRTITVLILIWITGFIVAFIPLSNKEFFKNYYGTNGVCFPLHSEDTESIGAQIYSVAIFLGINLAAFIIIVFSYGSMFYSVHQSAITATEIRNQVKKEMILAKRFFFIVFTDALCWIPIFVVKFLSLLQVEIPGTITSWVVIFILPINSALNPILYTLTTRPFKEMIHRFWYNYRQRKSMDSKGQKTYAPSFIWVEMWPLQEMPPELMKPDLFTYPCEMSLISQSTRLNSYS
Description: Agonist activity at RXFP1 receptor (unknown origin) expressed in HEK293 cells assessed as stimulation of cAMP production incubated for 30 mins by TR-FRET based HTRF assay. It is filed as functional, cell-based. Background: Changes in cAMP serve as a functional read-out for many G protein-coupled receptors.

Data set [2] has as its target T2, Relaxin receptor 1 (Homo sapiens) (UniProt Q9HBX9).
T2 sequence (whole entry): T1 sequence (Q9HBX9 whole entry)
Description: Agonist activity at RXFP1 receptor (unknown origin) expressed in HEK293 cells assessed as stimulation of cAMP production incubated for 30 mins by TR-FRET based HTRF assay relative to forskolin. The data set is classed as functional, cell-based.

Data set [3] addresses T3, Relaxin receptor 2 (Homo sapiens, UniProt Q8WXD0). The data set is described as follows: Agonist activity at RXFP2 receptor (unknown origin) expressed in HEK293 cells assessed as stimulation of cAMP production incubated for 30 mins by HTRF assay. The data set is classed as functional, cell-based.
Data set [4] has as its target T3, Relaxin receptor 2. Description: Agonist activity at RXFP2 receptor (unknown origin) expressed in HEK293 cells assessed as stimulation of cAMP production incubated for 30 mins by HTRF assay relative to control. It is filed as functional, cell-based.
In the next data set the target is T4, Vasopressin V1b receptor (Homo sapiens, UniProt P47901).
T4 sequence (P47901 whole entry): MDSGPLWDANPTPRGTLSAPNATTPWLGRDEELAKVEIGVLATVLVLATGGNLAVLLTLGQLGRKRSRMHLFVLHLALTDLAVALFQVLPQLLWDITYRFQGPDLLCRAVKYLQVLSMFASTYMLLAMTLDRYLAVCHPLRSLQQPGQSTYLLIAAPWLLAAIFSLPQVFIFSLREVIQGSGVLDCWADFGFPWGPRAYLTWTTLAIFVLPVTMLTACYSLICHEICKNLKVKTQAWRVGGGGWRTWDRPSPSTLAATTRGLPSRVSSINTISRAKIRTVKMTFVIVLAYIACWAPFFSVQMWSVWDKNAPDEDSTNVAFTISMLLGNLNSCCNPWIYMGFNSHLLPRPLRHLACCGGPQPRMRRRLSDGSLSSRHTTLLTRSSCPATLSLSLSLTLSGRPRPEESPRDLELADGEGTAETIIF
Description: Agonist activity at vasopressin receptor 1b (unknown origin) expressed in HEK293 cells assessed as stimulation of cAMP production incubated for 30 mins by HTRF assay. The data set is classed as functional, cell-based.

Data set [5] deals with T5, Vasopressin V1b receptor (Homo sapiens) (UniProt P47901).
T5 sequence (whole entry): T4 sequence (P47901 whole entry)
The data set is described as follows: Agonist activity at vasopressin receptor 1b (unknown origin) expressed in HEK293 cells assessed as stimulation of cAMP production incubated for 30 mins by HTRF assay relative to control. It is filed as functional, cell-based.

The test system of another data set is HEK293. Description: Cytotoxic activity against HEK293 cells assessed as reduction in cell viability by measuring ATP level incubated for 72 hrs by ATP cytotoxicity assay. The data set is classed as cell-based, Homo sapiens.
Data set [6] can be described thus: Cytotoxic activity against HEK293 cells assessed as reduction in cell viability by measuring ATP level incubated for 72 hrs by ATP cytotoxicity assay relative to control. The data set is classed as cell-based. To be noted: human, read-out: %max.
Data set [7] is described as follows: Solubility in PBS buffer. It is filed as physicochemical.
Data set [8] is described as follows: Half life in mouse liver microsomes. The data set is classed as ADME.
Data set [9] in a line: Stimulation of VEGF gene expression in human THP1 cells assessed as change in VEGF mRNA level incubated for 2 hrs by quantitative real time RT-PCR method relative to control. The data set is classed as functional, cell-based. To be noted: THP-1. (In general: In qPCR the cycle at which signal appears reflects the starting amount.)
Data set [10] concerns the target T2, Relaxin receptor 1 (Homo sapiens). Description: Agonist activity at RXFP1 receptor (unknown origin) expressed in HEK293 cells assessed as increase cell impedance at 250 to 750 nM measured every 10 to 30 secs for 1 hr by real time cell analyzer method. It is filed as functional, cell-based.
Data set [11] deals with T1, Relaxin receptor 1. Description: Agonist activity at RXFP1 receptor in human THP1 cells assessed as stimulation of cAMP production incubated for 30 mins by HTRF assay. The data set is classed as functional, cell-based, THP-1.
Where [12] appears, read: Homo sapiens, HEK293, 72 h, read-out: EC50.

In brackets after ≈: the same amount, converted by molar mass. Activity calls are given as the source filed them. No cut-off for these calls is given here.

T3 sequence (Q8WXD0 whole entry): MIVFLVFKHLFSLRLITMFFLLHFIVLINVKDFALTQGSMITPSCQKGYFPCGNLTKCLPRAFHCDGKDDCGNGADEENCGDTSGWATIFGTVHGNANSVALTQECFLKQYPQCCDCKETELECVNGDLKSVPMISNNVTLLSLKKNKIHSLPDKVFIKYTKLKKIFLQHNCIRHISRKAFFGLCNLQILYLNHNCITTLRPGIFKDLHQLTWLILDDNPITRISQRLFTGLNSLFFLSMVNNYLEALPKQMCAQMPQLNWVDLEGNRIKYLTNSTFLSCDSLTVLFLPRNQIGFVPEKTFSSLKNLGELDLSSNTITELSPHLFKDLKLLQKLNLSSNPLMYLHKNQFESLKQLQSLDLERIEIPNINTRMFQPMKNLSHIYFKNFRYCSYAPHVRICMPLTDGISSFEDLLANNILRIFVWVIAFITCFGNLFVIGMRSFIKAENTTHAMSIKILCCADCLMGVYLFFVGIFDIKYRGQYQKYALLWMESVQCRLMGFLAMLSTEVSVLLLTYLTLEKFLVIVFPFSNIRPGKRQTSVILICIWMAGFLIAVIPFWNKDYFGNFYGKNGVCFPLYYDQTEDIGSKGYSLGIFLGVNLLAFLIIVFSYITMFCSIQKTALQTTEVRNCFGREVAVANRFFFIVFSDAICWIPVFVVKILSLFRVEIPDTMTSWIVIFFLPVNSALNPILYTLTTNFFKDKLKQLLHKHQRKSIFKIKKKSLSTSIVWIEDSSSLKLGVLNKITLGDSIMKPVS

By AC50 is commonly meant the concentration giving half of the maximal activity seen. For orientation: EC50 means the concentration giving half of the maximal effect. The term solubility denotes the dissolved amount per volume that the medium holds. A higher solubility goes with much dissolved substance. `O=C(Nc1ccc2cc[nH]c2c1)c1ccccc1NC(=O)C1CCCCC1`: the AC50 entry is “Not Active” on Relaxin receptor 1 [1] (hek293), 9.4 µM at Relaxin receptor 2 [3] (read-out: AC50) and “Not Active” on Vasopressin V1b receptor. In addition, the “%max” value in [2] is “inactive”. The %max at Relaxin receptor 2 [4] is 47%; in [5], < 30%. The EC50 result in the data set with HEK293 (hek293) was “Non-toxic”. In data set [6], the Emax at 72 h was < 30%. The compound further displayed a solubility in [7] of 1.7 µM (≈ 0.614 µg/mL).

In the case of `O=C(Nc1cccc(C(F)(F)F)c1)c1ccccc1NC(=O)C1CCCCC1`, the half-maximal activity concentration (AC50) was 0.047 µM at Relaxin receptor 1 [1] (read-out: AC50), “Not Active” on Relaxin receptor 2 [3] (hek293) and “Not Active” at Vasopressin V1b receptor. Also, the %max in data set [2] is 92%; on Relaxin receptor 2 [4], < 30%; in [5] it was < 30%. For the same compound, in the data set on HEK293 (setting [12]), the EC50 worked out at 59.3 µM. The Emax at 72 h in [6] is -53%. Also, in data set [7], the solubility amounted to 5.3 µM (≈ 2.07 µg/mL).

In general, half-life refers to how long it takes for the measured level to halve. Higher therefore signals slow decline. Consider `O=C(Nc1ccccc1C(=O)Nc1cccc(C(F)(F)F)c1)c1cccs1`, for which the half-maximal activity concentration (AC50) is 1.88 µM on Relaxin receptor 1 [1] (read-out: AC50), “Not Active” on Relaxin receptor 2 [3] (hek293) and “Not Active” on Vasopressin V1b receptor. Further, the %max in data set [2] is 88%; at Relaxin receptor 2 [4], < 30%; in data set [5] it was < 30%. Also, the Emax at 72 h in data set [6] was -78%. For the same compound, the solubility in data set [7] is 3.3 µM (≈ 1.29 µg/mL). Further, in data set [8], the half-life turned out to be 1.67 h.

Take `O=C(Nc1ccccc1C(=O)Nc1cccc(C(F)(F)F)c1)c1ccc2c(c1)OCO2`: the AC50 on Relaxin receptor 1 [1] (read-out: AC50) is 6.66 µM; at Relaxin receptor 2 [3] (read-out: AC50), 3.34 µM; on Vasopressin V1b receptor, “Not Active”. The %max was 81% in [2], 54% at Relaxin receptor 2 [4] and < 30% in data set [5]. Also, the EC50 in the data set with HEK293 (setting [12]) stood at 3.74 µM. Further, in data set [6], the Emax at 72 h is -31%. Also, in data set [7], the solubility was determined as 2.9 µM (≈ 1.24 µg/mL).

Regarding `CCCCOc1ccccc1C(=O)Nc1ccccc1C(=O)Nc1cccc(S(=O)(=O)C(F)(F)F)c1`, at Relaxin receptor 1 [1] (read-out: AC50), the AC50 is 0.047 µM. Moreover, the %max in data set [2] came to 98%. The fold change (FC) in data set [9] came out at 1.6. In addition, in data set [10], the outcome was Active. In addition, the concentration giving a half-maximal response (EC50) on Relaxin receptor 1 [11] was 0.124 µM.

Turning to `O=C(Nc1ccccc1C(=O)Nc1cccc(C(F)(F)F)c1)c1ccncc1`, the AC50 on Relaxin receptor 1 [1] (read-out: AC50) was 7.47 µM; on Relaxin receptor 2 [3] (hek293) it was “Not Active”; on Vasopressin V1b receptor it was “Not Active”. Besides, the %max in data set [2] was 51%; on Relaxin receptor 2 [4], < 30%; in data set [5], < 30%. Moreover, the EC50 with HEK293 (setting [12]) was 9.4 µM. Besides, the Emax at 72 h in data set [6] worked out at 83%. The compound further gave a solubility in [7] of 17 µM (≈ 6.55 µg/mL).

These data come from ChEMBL document CHEMBL3714716, “Modulators of the relaxin receptor 1” (2015).
